This note sets out measurements from patent US20260078119A1, “DEGRADER COMPOUNDS AND USES THEREOF” (Bristol-Myers Squibb Company, priority 2024, published 2026).

Like-named read-outs stand apart in the source and are kept apart here.

One experiment concerns the target T1, FAK (Homo sapiens, UniProt Q05397).
T1 construct: homozygous knock-in of a HiBiT tag (Promega Corporation, Madison, WI) to the C-terminus of the FAK gene in its natural genomic locus; endogenous in cells; host or cells: JHH-4-FAK-HiBiT clone d01 (CRISPR-Cas9 knock-in at the endogenous locus)
Kind of experiment: FAK-HiBiT Degradation Assay. In kind it is cell-based. Particulars: for DC50: read-out: FAK HiBiT EC50; for FAK HiBiT Ymin: lower limit of the four parameter fit (value A), Ymax derived using DMSO control, JHH-4-FAK-HiBiT cells, two hours. An excerpt:
To generate JHH-4-FAK-HiBiT cells for the FAK degradation assay, JHH-4 cells (Japanese Collection of Research Biosources Cell Bank, Japan) were transfected with ribonucleoprotein reagents to introduce, by CRISPR-Cas9 editing, the homozygous knock-in of a HiBiT tag (Promega Corporation, Madison, WI) to the C-terminus of the FAK gene in its natural genomic locus. Clonal cell populations were established by expanding single cells after CRISPR-Cas9 editing, with a clonal cell line named JHH-4-FAK-HiBiT clone d01 confirmed by next generation DNA sequencing to contain the expected HiBiT edited FAK gene and was selected for FAK degradation screening. Cells were selected and maintained in complete DMEM media (DMEM, 10% Heat Inactivated FBS, and Non-Essential Amino Acids at 37° C. and 5% CO2). Cells were passaged every 3-4 days by reseeding 0.5×10^6 cells in a T75 flask.
Cells were dispensed into 384-well white plates (Corning #3570, NY) that were pre-spotted with compounds using an acoustic dispenser (Echo acoustic transfer system, Beckman Coulter Life Sciences, Carlsbad, CA) as a 10-point dose response curve with a 3-fold dilution starting at 1 μM and including a DMSO control. Twenty-five microliters of media containing 2000 JHH-4-FAK-HiBiT Clone d01 cells was dispensed per well. Assay plates were incubated at 37° C. with 5% CO2 for two hours. After incubation, 25 μL of Nano-Glo HiBiT Lytic Reagent Working Solution (Promega Corporation, Madison, WI) was added to each well and incubated at room temperature for 10 minutes protected from light. After 10 minutes, luminescence was read on a PHERAstar luminometer (BMG Labtech, Cary, NC).
To determine the half-maximal effective concentration (EC50) values for FAK-HiBIT degradation, a four parameter logistic model was used: (Sigmoidal Dose-Response Model)(FIT=(A+((B−A)/1+((C/x)^D)))) where C is the inflection point (EC50), D is the Hill slope, and A and B are the low and high limits of the fit respectively). The lower limit of the fit (value A) is referred to as Ymin. The maximum limit constraint, Ymax, was derived using DMSO control. The curves were processed and evaluated using Dotmatics Atlas (Insightful Science, LLC, Boston, MA).

In the next experiment the test system is CAL-51 cells. As to the kind of experiment: CAL-51 Cell Proliferation Assay. Particulars: for EC50: 120 hours incubation, 10-point dose response, 4-fold dilutions starting at 10 μM, Cell-Titer-Glo, read-out: CAL-51 Prolif EC50; for CAL-51 Prolif Ymin: minimal percent of DMSO control observed in the concentrations tested (Ymin-obs), 120 hours. In kind it is cell-based. An excerpt:
CAL-51 cells were obtained from Bristol Myers Squibb internal cell banks (originally sourced from DSMZ-German Collection of Microorganisms and Cell Cultures GmbH, Germany) and cultured in RPMI complete media (RPMI-1640, 10% Fetal Bovine serum, 1× Antibiotic-Antimycotic, and 1× Non-Essential Amino Acids). Compounds were dispensed into 384-well plates using an acoustic dispenser (Beckman Coulter Life Sciences, Carlsbad, CA) in duplicate with 14 compounds on each plate. For each compound, a 10-point dose response was printed at 4-fold dilutions starting at 10 μM. The DMSO concentration was kept constant for a final assay concentration of 0.1% per well assuming 50 uL final media volume. Compound plates were sealed and frozen at −20° C. until use.
For each assay batch, compound plates were thawed and allowed to reach room temperature, and cells were seeded at 350 cells per well in 50 μl complete RPMI media. After 120 hours of incubation at 37° C. and 5% CO2, cells were lysed by addition of 25 μL of Cell-Titer-Glo Reagent (Promega Corporation, Madison, WI), as per manufacturer's instructions, protected from light, shaken for 20 minutes, and total luminescence read by a CLARIOstar Plus plate reader (BMG LabTech, Cary, NC). Total luminescence signal is linearly correlated with cell number remaining in the well.
Luminescence data was processed per plate by subtracting reagent-only “blank” well luminescence from all measured values and calculating a percent of DMSO control value for each treatment well. Then, to determine the half-maximal effective concentration (EC50) values for cell growth inhibition, a four parameter logistic model was fit to the data for each DMSO-normalized compound: Sigmoidal Dose-Response Model: (FIT=(A+((B−A)/1+((C/x)^D)))) where C is the inflection point (EC50), D is the Hill slope, and A and B are the low and high limits of the fit respectively. The lower limit of the fit (value A) is referred to as Ymin-calculated. The minimal percent of DMSO control that is observed in the concentrations tested for each compound is labeled as “Ymin-obs”, and was recorded and reported in the tables. Sigmoidal fit curves were processed and evaluated using Dotmatics Atlas (Insightful Science, LLC, Boston, MA).

Setting [1] is: JHH-4-FAK-HiBiT clone d01 cells, two hours incubation, 10-point dose response, 3-fold dilution starting at 1 μM, Nano-Glo HiBiT luminescence.

T1 sequence (Q05397 whole entry): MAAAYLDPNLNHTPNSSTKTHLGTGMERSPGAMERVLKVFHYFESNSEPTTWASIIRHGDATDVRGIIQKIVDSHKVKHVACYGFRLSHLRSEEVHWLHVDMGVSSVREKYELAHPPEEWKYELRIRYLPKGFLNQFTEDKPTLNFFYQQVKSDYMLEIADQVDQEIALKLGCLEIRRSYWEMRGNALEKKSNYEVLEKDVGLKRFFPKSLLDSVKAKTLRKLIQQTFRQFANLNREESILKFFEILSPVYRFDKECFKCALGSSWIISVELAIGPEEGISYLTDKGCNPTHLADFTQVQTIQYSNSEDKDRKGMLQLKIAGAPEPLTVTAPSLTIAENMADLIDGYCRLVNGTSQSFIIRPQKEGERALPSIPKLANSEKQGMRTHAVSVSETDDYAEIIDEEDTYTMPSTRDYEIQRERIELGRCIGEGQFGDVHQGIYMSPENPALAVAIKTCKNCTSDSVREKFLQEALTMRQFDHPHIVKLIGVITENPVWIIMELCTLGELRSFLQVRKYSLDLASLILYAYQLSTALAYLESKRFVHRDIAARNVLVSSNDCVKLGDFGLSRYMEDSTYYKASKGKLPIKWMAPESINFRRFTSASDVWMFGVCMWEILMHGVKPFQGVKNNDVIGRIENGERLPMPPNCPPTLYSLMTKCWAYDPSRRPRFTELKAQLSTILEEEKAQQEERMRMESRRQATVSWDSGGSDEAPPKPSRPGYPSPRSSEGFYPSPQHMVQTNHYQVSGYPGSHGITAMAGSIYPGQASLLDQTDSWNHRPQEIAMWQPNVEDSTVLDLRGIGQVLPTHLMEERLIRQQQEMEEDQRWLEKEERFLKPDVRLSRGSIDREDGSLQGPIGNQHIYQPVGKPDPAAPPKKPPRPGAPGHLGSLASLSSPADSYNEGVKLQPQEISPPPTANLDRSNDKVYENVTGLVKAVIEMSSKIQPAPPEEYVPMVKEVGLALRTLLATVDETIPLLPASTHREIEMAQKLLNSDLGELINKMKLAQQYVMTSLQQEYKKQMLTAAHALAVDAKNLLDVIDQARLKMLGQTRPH

The term EC50 denotes the concentration needed to bring the measured effect to its halfway point. As to `Cc1cc(C(F)(F)F)cnc1-c1cc(N2CC(F)C2)nc2c1cnn2Cc1ccc2c(c1)CN(C1CCC(=O)NC1=O)C2=O` (stereo not drawn) [Example 29, 3-(5-{[6-(3-fluoroazetidin-1-yl)-4-[3-methyl-5-(trifluoromethyl)pyridin-2-yl]-1H-pyrazolo[3,4-b]pyridin-1-yl]methyl}-1-oxo-2,3-dihydro-1H-isoindol-2-yl)piperidine-2,6-dione], at FAK (setting [1]), the DC50 came out at 0.71 nM. Besides, the “FAK HiBiT Ymin” value on FAK stood at 8.83. Besides, the EC50 with CAL-51 cells (Homo sapiens) stood at 1.23 nM. Further, the “CAL-51 Prolif Ymin” value with CAL-51 cells was determined as 30.94.

Take `O=C1CCC(N2Cc3cc(Cn4ncc5c(-c6ncccc6C(F)(F)F)cc(N6CC(F)C6)nc54)ccc3C2=O)C(=O)N1` (stereo not drawn) [Example 79, 3-(5-{[6-(3-fluoroazetidin-1-yl)-4-[3-(trifluoromethyl)pyridin-2-yl]-1H-pyrazolo[3,4-b]pyridin-1-yl]methyl}-1-oxo-2,3-dihydro-1H-isoindol-2-yl)piperidine-2,6-dione]: the DC50 on FAK (setting [1]) was found to be 8.56 nM. Besides, the “FAK HiBiT Ymin” value on FAK is recorded as 10.79. Also, the EC50 in the experiment on CAL-51 cells (Homo sapiens) was found to be 3.22 nM. The “CAL-51 Prolif Ymin” value with CAL-51 cells was found to be 23.53.

As to `O=C1CC[C@H](N2Cc3cc(Cn4ncc5c(-c6ccc(F)cc6F)cc(N6CC[C@H](O)C6)nc54)ccc3C2=O)C(=O)N1` [Example 95, (3S)-3-(5-{[4-(2,4-difluorophenyl)-6-[(3S)-3-hydroxypyrrolidin-1-yl]-1H-pyrazolo[3,4-b]pyridin-1-yl]methyl}-1-oxo-2,3-dihydro-1H-isoindol-2-yl)piperidine-2,6-dione], on FAK (setting [1]), the DC50 was found to be 19.9 nM. The “FAK HiBiT Ymin” value on FAK amounted to 22.15. Further, the half-maximal effective concentration (EC50) in the experiment with CAL-51 cells (Homo sapiens) was determined as 13.5 nM. Moreover, the “CAL-51 Prolif Ymin” value in the experiment with CAL-51 cells is listed as 46.68.

As for `CN(c1cc(-c2ncc(C(F)(F)F)cc2Cl)c2cnn(Cc3ccc4c(c3)CN([C@H]3CCC(=O)NC3=O)C4=O)c2n1)C1CC(O)C1` (stereo partly drawn) [Example 64, (3S)-3-[5-({4-[3-chloro-5-(trifluoromethyl)pyridin-2-yl]-6-{methyl[(1s,3s)-3-hydroxycyclobutyl]amino}-1H-pyrazolo[3,4-b]pyridin-1-yl}methyl)-1-oxo-2,3-dihydro-1H-isoindol-2-yl]piperidine-2,6-dione], the values for the concentration giving a half-maximal response (EC50) on FAK (setting [1]) and with CAL-51 cells were 4.29 nM and 2.32 nM, respectively. The “FAK HiBiT Ymin” value on FAK amounted to 9.77. Besides, in the experiment on CAL-51 cells, the “CAL-51 Prolif Ymin” value amounted to 32.02.

On to `O=C1CC[C@H](N2Cc3cc(Cn4ncc5c(-c6ncc(C(F)(F)F)cc6Cl)cc(NC6CCOCC6)nc54)ccc3C2=O)C(=O)N1` [Example 134, (3S)-3-[5-({4-[3-chloro-5-(trifluoromethyl)pyridin-2-yl]-6-[(oxan-4-yl)amino]-1H-pyrazolo[3,4-b]pyridin-1-yl}methyl)-1-oxo-2,3-dihydro-1H-isoindol-2-yl]piperidine-2,6-dione], for which, on FAK (setting [1]), the DC50 was at least 1000 nM. The “FAK HiBiT Ymin” value on FAK was determined as 91.34. The EC50 in the experiment on CAL-51 cells (Homo sapiens) was found to be 8.5 nM. The “CAL-51 Prolif Ymin” value in the experiment on CAL-51 cells is on record as 65.79.

For `Cc1cc(OC(F)F)cnc1-c1cc(N2CC(F)C2)nc2c1cnn2Cc1ccc2c(c1)CN([C@H]1CCC(=O)NC1=O)C2=O` [Example 66, (3S)-3-[5-({4-[5-(difluoromethoxy)-3-methylpyridin-2-yl]-6-(3-fluoroazetidin-1-yl)-1H-pyrazolo[3,4-b]pyridin-1-yl}methyl)-1-oxo-2,3-dihydro-1H-isoindol-2-yl]piperidine-2,6-dione], the DC50 at FAK (setting [1]) stood at 4.63 nM. In addition, the “FAK HiBiT Ymin” value at FAK worked out at 7.72. For the same molecule, the EC50 in the experiment on CAL-51 cells (Homo sapiens) amounted to 1.72 nM. Further, the “CAL-51 Prolif Ymin” value in the experiment with CAL-51 cells turned out to be 27.43.

On to `O=C1CC[C@@H](N2Cc3cc(Cn4ncc5c(-c6ncc(C(F)(F)F)cc6Cl)cc(N6CC(F)C6)nc54)ccc3C2=O)C(=O)N1` (single isomer, unassigned) [Example 87], for which the DC50 at FAK (setting [1]) worked out at 13 nM. The “FAK HiBiT Ymin” value at FAK was 5.32. In addition, in the experiment on CAL-51 cells (Homo sapiens), the EC50 worked out at 2.17 nM. Further, the “CAL-51 Prolif Ymin” value in the experiment with CAL-51 cells is reported as 38.15.

As to `O=C1CC[C@H](N2Cc3cc(Cn4ncc5c(-c6ccc(F)cc6F)cc(N6CC(F)C6)nc54)ccc3C2=O)C(=O)N1` [Example 30, (3S)-3-(5-{[4-(2,4-difluorophenyl)-6-(3-fluoroazetidin-1-yl)-1H-pyrazolo[3,4-b]pyridin-1-yl]methyl}-1-oxo-2,3-dihydro-1H-isoindol-2-yl)piperidine-2,6-dione], the DC50 at FAK (setting [1]) came to 0.72 nM. Also, the “FAK HiBiT Ymin” value on FAK came out at 7.40. Moreover, the 50% effective concentration (EC50) in the experiment with CAL-51 cells (Homo sapiens) was determined as 0.77 nM. Also, the “CAL-51 Prolif Ymin” value with CAL-51 cells stood at 26.67.

For `O=C1CCC(N2Cc3cc(Cn4ncc5c(-c6ncc(Cl)cc6Cl)c(F)c(N6CC(F)C6)nc54)ccc3C2=O)C(=O)N1` (stereo not drawn) [Example 8, 3-(5-{[4-(3,5-dichloropyridin-2-yl)-5-fluoro-6-(3-fluoroazetidin-1-yl)-1H-pyrazolo[3,4-b]pyridin-1-yl]methyl}-1-oxo-2,3-dihydro-1H-isoindol-2-yl)piperidine-2,6-dione], the DC50 at FAK (setting [1]) turned out to be 0.55 nM. Also, at FAK, the “FAK HiBiT Ymin” value is 9.05. In addition, in the experiment on CAL-51 cells (Homo sapiens), the EC50 was 0.85 nM. For the same molecule, the “CAL-51 Prolif Ymin” value in the experiment with CAL-51 cells was determined as 17.44.

On to `O=C1CC[C@H](N2Cc3cc(Cn4ncc5c(-c6ncc(CF)cc6Cl)cc(N6CC(F)C6)nc54)ccc3C2=O)C(=O)N1` [Example 72, (3S)-3-[5-({4-[3-chloro-5-(fluoromethyl)pyridin-2-yl]-6-(3-fluoroazetidin-1-yl)-1H-pyrazolo[3,4-b]pyridin-1-yl}methyl)-1-oxo-2,3-dihydro-1H-isoindol-2-yl]piperidine-2,6-dione], for which, on FAK (setting [1]), the DC50 came to 6.35 nM. In addition, at FAK, the “FAK HiBiT Ymin” value is 7.12. The half-maximal effective concentration (EC50) in the experiment on CAL-51 cells (Homo sapiens) is 1.78 nM. The “CAL-51 Prolif Ymin” value with CAL-51 cells was 23.41.

For `CC(C)Nc1nc2c(cnn2Cc2ccc3c(c2)CN([C@H]2CCC(=O)NC2=O)C3=O)c(-c2ncc(F)cc2Cl)c1F` (single isomer, unassigned) [Example 9], the DC50 at FAK (setting [1]) came to 0.55 nM. Also, the “FAK HiBiT Ymin” value at FAK turned out to be 9.43. Besides, the EC50 in the experiment with CAL-51 cells (Homo sapiens) turned out to be 0.46 nM. In addition, the “CAL-51 Prolif Ymin” value with CAL-51 cells is recorded as 22.89.

As for `O=C1CCC(N2Cc3cc(Cn4ncc5c(-c6ncc(F)cc6Cl)cc(N6CC(F)C6)nc54)ccc3C2=O)C(=O)N1` (stereo not drawn) [Example 56, 3-(5-{[4-(3-chloro-5-fluoropyridin-2-yl)-6-(3-fluoroazetidin-1-yl)-1H-pyrazolo[3,4-b]pyridin-1-yl]methyl}-1-oxo-2,3-dihydro-1H-isoindol-2-yl)piperidine-2,6-dione], the DC50 at FAK (setting [1]) was determined as 3.72 nM. In addition, the “FAK HiBiT Ymin” value on FAK is on record as 10.37. Further, the EC50 in the experiment on CAL-51 cells (Homo sapiens) worked out at 1.67 nM. The “CAL-51 Prolif Ymin” value with CAL-51 cells came to 26.66.
